# Patent US10087165B2, “Fluoroquinolones and use thereof to treat bacterial infections” (UNIVERSITÉ PIERRE ET MARIE CURIE—PARIS 6 (UPMC), priority 2014, dated 2018)
# Read-outs that look alike come from different tables or passages of the source.
# How the values were obtained:
# [1] = test system: M. tuberculosis H37Rv strain; assay: Minimal effective dosage in the murine TB model; type: in vivo, Balb/C/J female mice; set-up: Mice weight: unit not given here; conditions: for Survival: No. death: 10 mice
# Method: Four-week-old Balb/C/J female mice were infected intravenously with 10^6 CFU of M. tuberculosis H37Rv strain. On the day following the infection (D1), 10 mice were sacrificed to determine the exact baseline values of spleen weight and CFU counts in the lungs. The remaining mice were allocated to the following treatment groups: an untreated negative control group for survival monitoring, a positive control group treated for 1 month with isoniazid (INH) 25 mg/kg/d, […] test groups were treated with Quin18 and Quin19 at increasing dosages (25 mg/kg/d; 50 mg/kg/d; 100 mg/kg/d; 150 mg/kg/d) given by oral gavage, and two additional test groups were treated intravenously with Quin18 25 mg/kg/d and 100 mg/kg/d. All the groups contained 10 mice and were treated from D1 to D28, 5 days a week. The parameters used for assessing the severity of infection and the effectiveness of treatments were survival rate, spleen weight, gross lung lesions and CFU counts in the lungs.
# The minimal effective dosage was defined as the minimal dosage able to prevent mortality of the mice, spleen enlargement and the occurrence of gross lung lesions. CFU counts were considered to be a more precise way of determining the dose-ranging efficacy of Quin18 and Quin19.
# Survival rates between groups were plotted on a Kaplan-Meier curve and compared using the log-rank test.
# [2] = Acute toxicity in healthy female CD-1 mice after a single oral treatment; type: in vivo; conditions: for Macroscopic autopsy: Observations: sacrifice at end of study
# Method: The aim of this study was to evaluate the acute toxicity of two new compounds (Quin 18 and Quin 19) in healthy female CD-1 after a single oral treatment at D0.
# Toxicity of treatment was evaluated by monitoring of animals (general signs of pharmacologic and toxicity effects, morbidity, mortality and evident signs of toxicity, as well as twice-weekly monitoring for clinical signs and body weight) until the end of the experiment (D14). At the end of the experiment, animals were sacrificed and macroscopic autopsy was performed.
# Mice of each group were administered by per os (PO) injection at 10 ml/kg according to the standard operating procedure No. TEC-078. The recommended volume for per os (PO) administration in mice is 10 ml/kg.
# Morbidity, mortality and evident signs of toxicity of mice were considered daily from D0 until the end of the experiment (D14 or D15).
# Monitoring of mice for detailed behavioral and clinical observations was performed twice a week from D0 until the end of the experiment (D14 or D15) according to the standard operating procedures No. TEC-192.
# Body weight of mice was monitored at D1, D2 and then twice a week until the end of the experiment (D14 or D15) according to the standard operating procedures No. TEC-108. Weight loss was assessed against the starting weight of each mouse at D0.
# During the course of the experiment, animals were sacrificed if any of the following occurs: • Signs of suffering (cachexia, weakening, difficulty to move or to eat), • Compound toxicity (hunching, convulsions), • 25% body weight loss on any day. Sacrifice of Animals
# At D14 or D15, animals were be sacrificed by CO2 inhalation and a macroscopic autopsy was performed.
# [3] = target: M. tuberculosis DNA gyrase (Mycobacterium tuberculosis, UniProt P9WG45+P9WG47); assay: biochemical
# M. tuberculosis DNA gyrase, sequence (P9WG47 whole entry): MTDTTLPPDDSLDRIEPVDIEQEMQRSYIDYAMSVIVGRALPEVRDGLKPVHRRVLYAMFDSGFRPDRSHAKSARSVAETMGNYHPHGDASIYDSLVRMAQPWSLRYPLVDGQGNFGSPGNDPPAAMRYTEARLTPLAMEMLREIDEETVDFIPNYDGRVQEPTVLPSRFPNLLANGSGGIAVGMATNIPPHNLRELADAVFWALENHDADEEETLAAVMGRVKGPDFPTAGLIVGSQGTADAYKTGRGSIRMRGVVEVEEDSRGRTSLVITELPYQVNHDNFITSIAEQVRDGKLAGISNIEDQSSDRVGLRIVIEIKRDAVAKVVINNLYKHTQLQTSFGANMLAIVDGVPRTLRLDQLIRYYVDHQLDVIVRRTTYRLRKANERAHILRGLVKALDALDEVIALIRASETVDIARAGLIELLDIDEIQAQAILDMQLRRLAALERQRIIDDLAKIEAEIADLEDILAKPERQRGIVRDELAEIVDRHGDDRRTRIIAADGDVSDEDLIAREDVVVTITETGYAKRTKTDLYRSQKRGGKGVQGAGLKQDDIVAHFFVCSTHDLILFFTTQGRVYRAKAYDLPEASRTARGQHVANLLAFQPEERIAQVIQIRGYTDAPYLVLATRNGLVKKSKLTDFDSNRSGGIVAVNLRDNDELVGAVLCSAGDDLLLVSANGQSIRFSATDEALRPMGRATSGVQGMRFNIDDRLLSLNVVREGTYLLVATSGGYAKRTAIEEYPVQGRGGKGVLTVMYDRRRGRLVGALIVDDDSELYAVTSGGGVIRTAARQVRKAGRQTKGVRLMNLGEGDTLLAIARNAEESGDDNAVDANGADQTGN
# M. tuberculosis DNA gyrase, sequence (P9WG45 whole entry): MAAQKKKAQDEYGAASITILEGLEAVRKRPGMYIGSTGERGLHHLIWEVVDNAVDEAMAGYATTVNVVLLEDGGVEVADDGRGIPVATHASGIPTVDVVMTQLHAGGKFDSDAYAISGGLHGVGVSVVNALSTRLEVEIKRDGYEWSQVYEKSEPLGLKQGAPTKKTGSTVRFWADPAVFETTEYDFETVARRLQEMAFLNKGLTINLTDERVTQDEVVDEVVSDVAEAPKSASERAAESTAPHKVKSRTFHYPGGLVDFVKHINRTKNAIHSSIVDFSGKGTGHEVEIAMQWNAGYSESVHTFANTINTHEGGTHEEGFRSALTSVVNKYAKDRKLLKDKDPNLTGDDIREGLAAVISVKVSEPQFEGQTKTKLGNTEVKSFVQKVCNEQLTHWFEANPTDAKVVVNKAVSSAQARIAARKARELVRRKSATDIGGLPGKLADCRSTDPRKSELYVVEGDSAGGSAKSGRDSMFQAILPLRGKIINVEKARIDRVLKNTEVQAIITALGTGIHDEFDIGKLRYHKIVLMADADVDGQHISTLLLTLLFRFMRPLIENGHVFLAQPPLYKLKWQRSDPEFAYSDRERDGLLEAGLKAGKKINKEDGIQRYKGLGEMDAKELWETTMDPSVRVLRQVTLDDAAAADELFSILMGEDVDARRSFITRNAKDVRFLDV
# [4] = test system: M. tuberculosis H37Rv; assay: microbe, parasite or virus in culture; type: cell-based; conditions: for MIC: Mycobacterium tuberculosis
structure (smiles),measurement,setting,value
"CCCCCCCCN1CCN(c2c(F)cc3c(=O)c(C(=O)O)cn(C4CC4)c3c2OC)CC1 [Quin 18, 1-cyclopropyl-6-fluoro-8-methoxy-7-(4-octylpiperazin-1-yl)-4-oxo-1,4-dihydroquinoline-3-carboxylic acid]",Mice weight,"[1]; 25 mg/kg/j, Gavage",19.4 ± 0.9
same,Spleen weight,"[1]; 25 mg/kg/j, Gavage",258.6 ± 155 mg
same,Survival: No. death,"[1]; 25 mg/kg/j, Gavage, D1 to D28, 5 days a week",0
same,Mice weight,"[1]; 25 mg/kg/j, Intravenously",20 ± 1
same,Spleen weight,"[1]; 25 mg/kg/j, Intravenously",391 ± 89.7 mg
same,Survival: No. death,"[1]; 25 mg/kg/j, Intravenously",0
same,Mice weight,"[1]; 50 mg/kg/j, Gavage",20 ± 1.6
same,Spleen weight,"[1]; 50 mg/kg/j, Gavage",231 ± 63.3 mg
same,Survival: No. death,"[1]; 50 mg/kg/j, Gavage",0
same,Mice weight,"[1]; 100 mg/kg/j, Gavage",19.4 ± 1.5
same,Spleen weight,"[1]; 100 mg/kg/j, Gavage",210 ± 104.1 mg
same,Survival: No. death,"[1]; 100 mg/kg/j, Gavage",0
same,Mice weight,"[1]; 100 mg/kg/j, Intravenously",20 ± 1.1
same,Spleen weight,"[1]; 100 mg/kg/j, Intravenously",400 ± 7.7 mg
same,Survival: No. death,"[1]; 100 mg/kg/j, Intravenously",1
same,Mice weight,"[1]; 150 mg/kg/j, Gavage",20.3 ± 0.8
same,Spleen weight,"[1]; 150 mg/kg/j, Gavage",239.8 ± 129.3 mg
same,Survival: No. death,"[1]; 150 mg/kg/j, Gavage",0
same,Efficacy in a mouse model of tuberculosis (in words),[1]; given orally,outstanding efficacy
same,Spleen weights compared with untreated group (in words),[1]; treated intravenously,spleen weights similar than the untreated group
same,Survival compared with untreated group (in words),"[1]; whatever the dosage (25, 50, 100 and 150 mg/kg/d) and the administration route",statistically superior to untreated group
same,Loss of body weight (in words),[2]; Group A1: 100 mg/kg PO Q1Dx1,did not exhibited any loss of body weight
same,Tolerance (in words),"[2]; Group A1: 100 mg/kg PO Q1Dx1, polysorbate 80 0.4%, with sonication",well tolerated
same,Mean body weight (MBW),"[2]; Group A1: 100 mg/kg PO Q1Dx1, with sonication, D1",31.33 ± 0.8 g
same,Mean body weight (MBW),"[2]; Group A1: 100 mg/kg PO Q1Dx1, with sonication, D2",31.2 ± 0.7 g
same,Mean body weight (MBW),"[2]; Group A1: 100 mg/kg PO Q1Dx1, with sonication, D3",30.3 ± 0.53 g
same,Mean body weight (MBW),"[2]; Group A1: 100 mg/kg PO Q1Dx1, with sonication, D4",30.47 ± 0.78 g
same,Mean body weight (MBW),"[2]; Group A1: 100 mg/kg PO Q1Dx1, with sonication, D7",31.63 ± 0.49 g
same,Mean body weight (MBW),"[2]; Group A1: 100 mg/kg PO Q1Dx1, with sonication, D11",32.3 ± 1.37 g
same,Mean body weight (MBW),"[2]; Group A1: 100 mg/kg PO Q1Dx1, with sonication, D14",31.77 ± 0.76 g
same,Macroscopic autopsy: Observations,[2]; Group A1: 100 mg/kg PO Q1Dx1,NTR
same,Mean body weight (MBW),"[2]; Group A1: polysorbate 80 0.4%, 10 mg/ml with sonication, 100 mg/kg PO Q1Dx1, D0, 100 mg/kg",31.5 ± 1.48 g
same,Loss of body weight (in words),[2]; Group A2: 200 mg/kg PO Q1Dx1,did not exhibited any loss of body weight
same,Tolerance (in words),"[2]; Group A2: 200 mg/kg PO Q1Dx1, polysorbate 80 0.4%, with sonication",well tolerated
same,Mean body weight (MBW),"[2]; Group A2: 200 mg/kg PO Q1Dx1, with sonication, D1",31.13 ± 1.01 g
same,Mean body weight (MBW),"[2]; Group A2: 200 mg/kg PO Q1Dx1, with sonication, D2",30.27 ± 0.74 g
same,Mean body weight (MBW),"[2]; Group A2: 200 mg/kg PO Q1Dx1, with sonication, D3",30.7 ± 0.44 g
same,Mean body weight (MBW),"[2]; Group A2: 200 mg/kg PO Q1Dx1, with sonication, D7",31.67 ± 0.49 g
same,Mean body weight (MBW),"[2]; Group A2: 200 mg/kg PO Q1Dx1, with sonication, D10",31.73 ± 0.95 g
same,Mean body weight (MBW),"[2]; Group A2: 200 mg/kg PO Q1Dx1, with sonication, D14",32.6 ± 1.35 g
same,Macroscopic autopsy: Observations,[2]; Group A2: 200 mg/kg PO Q1Dx1,NTR
same,Mean body weight (MBW),"[2]; Group A2: polysorbate 80 0.4%, 20 mg/ml with sonication, 200 mg/kg PO Q1Dx1, D0, 200 mg/kg",30.2 ± 1.15 g
same,Loss of body weight (in words),[2]; Group A3: 100 mg/kg PO Q1Dx1,did not exhibited any loss of body weight
same,Tolerance (in words),"[2]; Group A3: 100 mg/kg PO Q1Dx1, polysorbate 80 0.4%",well tolerated
same,Mean body weight (MBW),"[2]; Group A3: 100 mg/kg PO Q1Dx1, without sonication, D1",29.8 ± 1.05 g
same,Mean body weight (MBW),"[2]; Group A3: 100 mg/kg PO Q1Dx1, without sonication, D2",30.4 ± 1.25 g
same,Mean body weight (MBW),"[2]; Group A3: 100 mg/kg PO Q1Dx1, without sonication, D4",30 ± 1.01 g
same,Mean body weight (MBW),"[2]; Group A3: 100 mg/kg PO Q1Dx1, without sonication, D7",31.33 ± 0.74 g
same,Mean body weight (MBW),"[2]; Group A3: 100 mg/kg PO Q1Dx1, without sonication, D11",32.3 ± 2.02 g
same,Mean body weight (MBW),"[2]; Group A3: 100 mg/kg PO Q1Dx1, without sonication, D15",32.17 ± 1.94 g
same,Macroscopic autopsy: Observations,[2]; Group A3: 100 mg/kg PO Q1Dx1,NTR
same,Mean body weight (MBW),"[2]; Group A3: polysorbate 80 0.4%, 10 mg/ml without sonication, 100 mg/kg PO Q1Dx1, D0, 100 mg/kg",29.9 ± 1.25 g
same,Loss of body weight (in words),[2]; Group A4: 200 mg/kg PO,did not exhibited any loss of body weight
same,Mean body weight (MBW),"[2]; Group A4: 200 mg/kg PO 2Q1Dx1, without sonication, D1",29.73 ± 1.22 g
same,Mean body weight (MBW),"[2]; Group A4: 200 mg/kg PO 2Q1Dx1, without sonication, D2",30.2 ± 1.31 g
same,Mean body weight (MBW),"[2]; Group A4: 200 mg/kg PO 2Q1Dx1, without sonication, D5",30 ± 1.45 g
same,Mean body weight (MBW),"[2]; Group A4: 200 mg/kg PO 2Q1Dx1, without sonication, D9",30.93 ± 3.04 g
same,Mean body weight (MBW),"[2]; Group A4: 200 mg/kg PO 2Q1Dx1, without sonication, D13",31.73 ± 2.64 g
same,Mean body weight (MBW),"[2]; Group A4: 200 mg/kg PO 2Q1Dx1, without sonication, D14",31.33 ± 1.63 g
same,Macroscopic autopsy: Observations,[2]; Group A4: 200 mg/kg PO 2Q1Dx1,NTR
same,Tolerance (in words),"[2]; Group A4: 200 mg/kg PO, polysorbate 80 0.4%",well tolerated
same,Mean body weight (MBW),"[2]; Group A4: polysorbate 80 0.4%, 10 mg/ml without sonication, 200 mg/kg PO 2Q1Dx1 (2 hours between the 2 injections), D0, 200 mg/kg",29.5 ± 0.89 g
same,"Autopsy, macroscopic observations (in words)",[2]; all treated groups,No particular sign was observed
same,Dose up to which well tolerated (maximal solubility),"[2]; in polysorbate 80 0.4%, PO, female mice",up to 200 mg/kg
same,Signs of toxicity at the dose levels tested (in words),[2]; mice,no signs of toxicity
same,IC50,[3],195 µM
same,antibacterial activity against wild-type M. tuberculosis strain (in words),[4]; H37Rv,high antibacterial activity
same,MIC,"[4]; H37RV, Table 3, read-out: MIC M. tuberculosis H37Rv",0.12 µM
same,MIC,"[4]; H37Rv, Table 2, read-out: MIC (M. tuberculosis) WT",≤ 0.12 µM
